Results as given in patent US10457707B2, “Substituted urea depsipeptide analogs as activators of the CLPP endopeptidase” (priority 2015, dated 2019).
Values after ≈ are worked out from the molar mass of the structure shown. Read-outs that look alike come from different tables or passages of the source. *1 amine or outer side, *2 acyl side, *3 side chain or, on linkers, in order; H or OH if unused. Where a SMILES comes first, the peptide text is derived from it. Bridges are numbered along the chain shown (N, C = ends). [ ]: non-standard residue; d: D form. The star is where a group is joined. Phe(3,5-F2) = N[C@@H](Cc1cc(F)cc(F)c1)C(=O)O; NH(4-OCF3-phenyl) = FC(F)(F)Oc1ccc(N*)cc1; Morpholine(3S-CO) = O=C(O)[C@@H]1COCCN1; Pro(4S-Me) = C[C@@H]1CN[C@H](C(=O)O)C1; Pro(4R-Me) = C[C@H]1CN[C@H](C(=O)O)C1; NH(3,4-Me2-phenyl) = Cc1ccc(N*)cc1C; NMeaThr = CN[C@H](C(=O)O)[C@H](C)O; Hyp = O=C(O)[C@@H]1C[C@@H](O)CN1; NH(4-Et-phenyl) = CCc1ccc(N*)cc1; NH(4-Me-phenyl) = Cc1ccc(N*)cc1; aThr = C[C@H](O)[C@H](N)C(=O)O; Pip = O=C(O)[C@@H]1CCCCN1; CO = O=C([*:1])[*:2]

Columns and labels:
Assay type in all cases: cell-based
[1] = tested on: Streptococcus pneumoniae, R6; experiment: Minimal inhibitory concentration assay; conditions: read-out: Minimal Inhibitory Concentrations S. pneumoniae R6
How it was run: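 Microbroth dilution with two-fold serial compound dilutions in broth, incubated aerobically overnight at 37° C. MIC taken as the lowest concentration preventing bacterial growth.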

[2] = tested on: Staphylococcus aureus, ATCC 29213; experiment: Minimal inhibitory concentration assay (microbroth dilution); conditions: ATCC29213, read-out: Minimal Inhibitory Concentrations S. aureus ATCC 29213
How it was run: (§1)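 CLSI broth microdilution: two-fold compound dilutions from 200 μM final, ~10^5 cfu/mL inoculum, aerobic overnight incubation at 37 °C. MIC read visually as lowest concentration preventing growth; S. aureus USA 300 compared with its ClpP-inactivated counterpart to check ClpP dependence.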

[3] = tested on: Staphylococcus aureus, NRS70; experiment: as above
How it was run: as §1

[4] = tested on: Bacillus subtilis, ATCC 23857; experiment: as above
How it was run: as §1

[5] = Staphylococcus aureus, NRS70, read-out: Minimal Inhibitory Concentrations S. aureus NRS70
[6] = Bacillus subtilis, ATCC23857, read-out: Minimal Inhibitory Concentrations B. subtilis ATCC 23857
[7] = Staphylococcus aureus, NRS70; read-out: Minimal Inhibitory Concentrations S. aureus NRS70
[8] = Bacillus subtilis, ATCC23857; read-out: Minimal Inhibitory Concentrations B. subtilis ATCC 23857

Cc1ccc(NC(=O)N[C@@H](Cc2cc(F)cc(F)c2)C(=O)N[C@@H]2C(=O)N3CCC[C@H]3C(=O)N(C)[C@@H]([C@H](C)O)C(=O)N[C@@H](C)C(=O)N3C[C@@H](C)C[C@H]3C(=O)O[C@H]2C)cc1 [Compound 202, (S)-3-(3,5-difluorophenyl)-N-((2S,6S,9S,11aS,17S,18S,20aS)-9-((S)-1-hydroxyethyl)-2,6,10,18-tetramethyl-5,8,11,16,20-pentaoxohexadecahydro-1H,5H,16H-dipyrrolo[2,1-c:2′,1′-L][1]oxa[4,7,10,13]tetraazacyclohexadecin-17-yl)-2-(3-(p-tolyl)ureido)propanamide] ({NH(4-Me-phenyl)-CO}-[Phe(3,5-F2)][aThr]P[NMeaThr]A[Pro(4S-Me)]; ester 2-C)
MIC [1]: 0.049 µM (≈ 0.0398 µg/mL) | MIC [2]: 0.195 µM (≈ 0.158 µg/mL) | MIC [3, 5]: 0.098 µM (≈ 0.0796 µg/mL) | MIC [4, 6]: 0.195 µM (≈ 0.158 µg/mL)

C[C@H]1C[C@H]2C(=O)O[C@@H](C)[C@H](NC(=O)[C@H](Cc3cc(F)cc(F)c3)NC(=O)Nc3ccc(OC(F)(F)F)cc3)C(=O)N3CCC[C@H]3C(=O)N(C)[C@@H]([C@H](C)O)C(=O)N[C@@H](C)C(=O)N2C1 [Compound 203, (S)-3-(3,5-difluorophenyl)-N-((2S,6S,9S,11aS,17S,18S,20aS)-9-((S)-1-hydroxyethyl)-2,6,10,18-tetramethyl-5,8,11,16,20-pentaoxohexadecahydro-1H,5H,16H-dipyrrolo[2,1-c:2′,1′-l][1]oxa[4,7,10,13]tetraazacyclohexadecin-17-yl)-2-(3-(4-(trifluoromethoxy)phenyl)ureido)propanamide] ({NH(4-OCF3-phenyl)-CO}-[Phe(3,5-F2)][aThr]P[NMeaThr]A[Pro(4S-Me)]; ester 2-C)
MIC [1]: 0.024 µM (≈ 0.0212 µg/mL) | MIC [2]: 0.098 µM (≈ 0.0864 µg/mL) | MIC [3, 7]: 0.049 µM (≈ 0.0432 µg/mL) | MIC [4, 8]: 0.098 µM (≈ 0.0864 µg/mL)

CCc1ccc(NC(=O)N[C@@H](Cc2cc(F)cc(F)c2)C(=O)N[C@@H]2C(=O)N3CCC[C@H]3C(=O)N(C)[C@@H]([C@H](C)O)C(=O)N[C@@H](C)C(=O)N3C[C@@H](C)C[C@H]3C(=O)O[C@H]2C)cc1 [Compound 204, (S)-3-(3,5-difluorophenyl)-2-(3-(4-ethylphenyl)ureido)-N-((2S,6S,9S,11aS,17S,18S,20aS)-9-((S)-1-hydroxyethyl)-2,6,10,18-tetramethyl-5,8,11,16,20-pentaoxohexadecahydro-1H,5H,16H-dipyrrolo[2,1-c:2′,1′-l][1]oxa[4,7,10,13]tetraazacyclohexadecin-17-yl)propanamide] ({NH(4-Et-phenyl)-CO}-[Phe(3,5-F2)][aThr]P[NMeaThr]A[Pro(4S-Me)]; ester 2-C)
MIC [1]: 0.024 µM (≈ 0.0198 µg/mL) | MIC [2]: 0.098 µM (≈ 0.0809 µg/mL) | MIC [3, 7]: 0.098 µM (≈ 0.0809 µg/mL) | MIC [4, 8]: 0.049 µM (≈ 0.0405 µg/mL)

C[C@@H]1C[C@H]2C(=O)OC[C@H](NC(=O)[C@H](Cc3ccccc3)NC(=O)Nc3ccc(OC(F)(F)F)cc3)C(=O)N3CCC[C@H]3C(=O)N3CCCC[C@H]3C(=O)N[C@@H](C)C(=O)N2C1 [Compound 205]
MIC [1]: 0.2 µM (≈ 0.166 µg/mL) | MIC [2]: 0.39 µM (≈ 0.323 µg/mL) | MIC [3, 7]: 0.2 µM (≈ 0.166 µg/mL) | MIC ([4]; B. subtilis ATCC 23857; read-out: Minimal Inhibitory Concentrations B. subtilis ATCC 23857): 0.2 µM (≈ 0.166 µg/mL)

Cc1ccc(NC(=O)N[C@@H](Cc2ccccc2)C(=O)N[C@H]2COC(=O)[C@@H]3C[C@@H](C)CN3C(=O)[C@H](C)NC(=O)[C@@H]3CCCCN3C(=O)[C@@H]3CCCN3C2=O)cc1C [Compound 206, (S)—N-((2R,6S,8aS,14aS,20S,23aS)-2,6-dimethyl-5,8,14,19,23-pentaoxooctadecahydro-1H,5H,14H,19H-pyrido[2,1-i]dipyrrolo[2,1-c:2′,1′-l][1]oxa[4,7,10,13]tetraazacyclohexadecin-20-yl)-2-(3-(3,4-dimethylphenyl)ureido)-3-phenylpropanamide]
MIC [1]: < 0.2 µM | MIC [2]: 0.39 µM (≈ 0.301 µg/mL) | MIC [3, 5]: 0.39 µM (≈ 0.301 µg/mL) | MIC [4, 6]: < 0.2 µM

Cc1ccc(NC(=O)N[C@@H](Cc2cc(F)cc(F)c2)C(=O)N[C@H]2COC(=O)[C@@H]3C[C@@H](C)CN3C(=O)[C@H](C)NC(=O)[C@@H]3CCCCN3C(=O)[C@@H]3CCCN3C2=O)cc1C [Compound 207, (S)-3-(3,5-difluorophenyl)-N-((2R,6S,8aS,14aS,20S,23aS)-2,6-dimethyl-5,8,14,19,23-pentaoxooctadecahydro-1H,5H,14H,19H-pyrido[2,1-i]dipyrrolo[2,1-c:2′,1′-l][1]oxa[4,7,10,13]tetraazacyclohexadecin-20-yl)-2-(3-(3,4-dimethylphenyl)ureido)propanamide]
MIC [1]: < 0.2 µM | MIC [2]: < 0.2 µM | MIC [3, 5]: < 0.2 µM | MIC [4, 6]: < 0.2 µM

Cc1ccc(NC(=O)N[C@@H](Cc2cc(F)cc(F)c2)C(=O)N[C@@H]2C(=O)N3CCC[C@H]3C(=O)N3CCOC[C@H]3C(=O)N[C@@H](C)C(=O)N3C[C@H](C)C[C@H]3C(=O)O[C@H]2C)cc1 [Compound 210, (S)-3-(3,5-difluorophenyl)-2-(3-(p-tolyl)ureido)-N-((6aS,12S,13S,15aS,17R,21S,23aS)-13,17,21-trimethyl-6,11,15,20,23-pentaoxooctadecahydro-6H,11H,15H-[1,4]oxazino[3,4-i]dipyrrolo[2,1-c:2′,1′-l][1]oxa[4,7,10,13]tetraazacyclohexadecin-12-yl)propanamide] ({NH(4-Me-phenyl)-CO}-[Phe(3,5-F2)][aThr]P[Morpholine(3S-CO)]A[Pro(4R-Me)]; ester 2-C)
MIC [1]: 0.002 µM (≈ 0.00162 µg/mL) | MIC [2]: 0.003 µM (≈ 0.00243 µg/mL) | MIC [3, 5]: 0.0002 µM (≈ 0.000162 µg/mL) | MIC [4, 6]: 0.02 µM (≈ 0.0162 µg/mL)

CCc1ccc(NC(=O)N[C@@H](Cc2cc(F)cc(F)c2)C(=O)N[C@@H]2C(=O)N3C[C@H](O)C[C@H]3C(=O)N3CCCC[C@H]3C(=O)N[C@@H](C)C(=O)N3C[C@H](C)C[C@H]3C(=O)O[C@H]2C)cc1 [Compound 211, (S)-3-(3,5-difluorophenyl)-2-(3-(4-ethylphenyl)ureido)-N-((2R,6S,8aS,14aS,16R,20S,21S,23aS)-16-hydroxy-2,6,21-trimethyl-5,8,14,19,23-pentaoxooctadecahydro-1H,5H,14H,19H-pyrido[2,1-i]dipyrrolo[2,1-c:2′,1′-l][1]oxa[4,7,10,13]tetraazacyclohexadecin-20-yl)propanamide] ({NH(4-Et-phenyl)-CO}-[Phe(3,5-F2)][aThr][Hyp][Pip]A[Pro(4R-Me)]; ester 2-C)
MIC [1]: 0.005 µM (≈ 0.00419 µg/mL) | MIC [2]: 0.04 µM (≈ 0.0335 µg/mL) | MIC [3, 7]: 0.02 µM (≈ 0.0168 µg/mL) | MIC [4, 8]: 0.8 µM (≈ 0.67 µg/mL)

Cc1ccc(NC(=O)N[C@@H](Cc2cc(F)cc(F)c2)C(=O)N[C@@H]2C(=O)N3C[C@H](O)C[C@H]3C(=O)N3CCCC[C@H]3C(=O)N[C@@H](C)C(=O)N3C[C@H](C)C[C@H]3C(=O)O[C@H]2C)cc1C [Compound 212, (S)-3-(3,5-difluorophenyl)-2-(3-(3,4-dimethylphenyl)ureido)-N-((2R,6S,8aS,14aS,16R,20S,21S,23aS)-16-hydroxy-2,6,21-trimethyl-5,8,14,19,23-pentaoxooctadecahydro-1H,5H,14H,19H-pyrido[2,1-i]dipyrrolo[2,1-c:2′,1′-l][1]oxa[4,7,10,13]tetraazacyclohexadecin-20-yl)propanamide] ({NH(3,4-Me2-phenyl)-CO}-[Phe(3,5-F2)][aThr][Hyp][Pip]A[Pro(4R-Me)]; ester 2-C)
MIC [1]: 0.002 µM (≈ 0.00168 µg/mL) | MIC [2]: 0.005 µM (≈ 0.00419 µg/mL) | MIC [3, 5]: 0.002 µM (≈ 0.00168 µg/mL) | MIC [4, 6]: < 0.2 µM
